From patent publication US9708251B2, “Unsaturated fatty alcohol alkoxylates from natural oil metathesis” (Stepan Company, priority 2012, dated 2017)

Assays:
[1] = 0.4 wt. % active, 342 ppm hard water
Experimental: Surfactant solution (100 mL) is carefully transferred to a stainless-steel mixing cup, then mixed at high speed (27K rpm) using a Hamilton Beach mixer for 10 s. The contents are quickly poured into a 100-mL graduated cylinder to the 100-mL mark, and a stopwatch is immediately started. The amount of liquid settling in the cylinder is recorded every 15 s for 4 min. Less liquid drained indicates greater foam stability.

[2] = Emulsion stability testing of nonionic emulsifiers, aromatic solvent series; type: physicochemical; design: key to 24 h separation, appearance / 1 h separation, appearance / 1 h separation, amount: C = creamy; CO = creamy oil; O = oil; GC = gritty cream; NS = no separation; OC = oily cream; key to Spon. (spontaneity): G = good; F = fair; P = poor
Experimental: (§1) Nonionic samples contain a low amount of water (<1%) and are prepared as emulsifiable concentrates with three pesticides using two different solvent systems. In the aromatic solvent series, the nonionic sample replaces Toximul® 8240 (castor oil ethoxylate, 36 POE, Stepan), and in the Hallcomid™ (N,N-dimethylcaprylamide/N,N-dimethylcapramide, Stepan) solvent series, the nonionic sample replaces Ninex® MT-630F.
Sample preparation: Ninate® 60E (calcium alkylbenzenesulfonate, Stepan) and the test sample are stirred until homogeneous. […] Controls 1-3 are made by using Toximul 8240 in the amounts indicated instead of the nonionic sample.
Formulations: • 1. Bifenthrin, 240 g/L (2.99 g), Aromatic 100 (ExxonMobil, 8.05 g), Ninate 60E (0.38 g), and nonionic sample or Toximul 8240 (0.58 g). • 2. 2,4-D ester, 480 g/L (8.90 g), Exxsol® D-110 (ExxonMobil, 2.50 g), Ninate 60E (0.36 g), and nonionic sample or Toximul 8240 (0.24 g). • 3. Tebuconazole, 360 g/L (4.45 g), N-methyl-2-pyrrolidone (6.35 g), Ninate 60E (0.48 g), nonionic sample or Toximul 8240 (0.72 g).
(§2) Emulsion Stability Testing
(§3) A Mohr pipette is used to feed pesticide/surfactant concentrates to each cylinder.

[3] = Surfactant phase behavior study (cross-polarized microscopy); type: physicochemical; details: room temperature, in deionized water
Experimental: Phase behavior is observed using an Olympus BH-2 cross-polarized microscope at 100-400× and room temperature (20° C. to 22° C.). The inventive monounsaturated alcohol ethoxylates are compared with their saturated analogs.
Samples are prepared by diluting the most concentrated product gradually with deionized water. When the surfactant concentration approaches a phase transition, the concentration is varied at 2-4% intervals to estimate the phase boundary. The actives level reported in Table 4 for each phase boundary is within ±5% of the true boundary.
Samples are loaded between a microscope slide and cover glass and are allowed to equilibrate before observation. Microscopic texture is analyzed and used to determine the phase. For some samples, an AR 2000 rheometer (TA Instruments) is used to measure viscosity at 25° C. to further verify phase behavior.

[4] = Emulsion stability testing of nonionic emulsifiers, Hallcomid solvent series; type: physicochemical; design: key: C = creamy; CO = creamy oil; O = oil; GC = gritty cream; NS = no separation; OC = oily cream
Experimental: as §1
(§4) Hallcomid Solvent Series.
(§5) Sample preparation: The surfactants are combined and stirred until homogeneous, with the nonionic sample melted if needed prior to combination. Controls 1-3 are made by using Ninex MT-630F in the amounts indicated instead of the nonionic sample.
as §2, §3

[5] = as above; type: physicochemical; design: key to 24 h separation, appearance / 1 h separation, appearance / 1 h separation, amount: C = creamy; CO = creamy oil; O = oil; GC = gritty cream; NS = no separation; OC = oily cream; key to Spon. (spontaneity): G = good; F = fair; P = poor
Experimental: as §1, §4, §5, §2, §3

[6] = 2,4-D ester 480 g/L in Exxsol D-110, 34 ppm water
[7] = 2,4-D ester 480 g/L in Exxsol D-110, 1000 ppm water
[8] = Bifenthrin 240 g/L in Aromatic 100, 34 ppm water
[9] = Bifenthrin 240 g/L in Aromatic 100, 1000 ppm water
[10] = Tebuconazole 360 g/L in N-methyl-2-pyrrolidone, 34 ppm water
[11] = Tebuconazole 360 g/L in N-methyl-2-pyrrolidone, 1000 ppm water
[12] = Bifenthrin 240 g/L in Hallcomid M-8-10, 34 ppm water
[13] = 2,4-D diester 480 g/L in Hallcomid M-8-10, 34 ppm water
[14] = 2,4-D diester 480 g/L in Hallcomid M-8-10, 1000 ppm water
[15] = Bifenthrin 240 g/L in Hallcomid M-8-10, 1000 ppm water
[16] = Tebuconazole 360 g/L in Hallcomid M-8-10, 34 ppm water
[17] = Tebuconazole 360 g/L in Hallcomid M-8-10, 1000 ppm water

Structure (SMILES): C=CCCCCCCCCOCCOCCOCCOCCOCCOCCOCCO [A10-13]
- Liquid volume at drain time 0.5 min [1]: 0.50 mL
- Liquid volume at drain time 1.0 min [1]: 2.25 mL
- Liquid volume at drain time 1.5 min [1]: 4.00 mL
- Liquid volume at drain time 2.0 min [1]: 6.00 mL
- Liquid volume at drain time 2.5 min [1]: 7.50 mL
- Liquid volume at drain time 3.0 min [1]: 9.50 mL
- Liquid volume at drain time 3.5 min [1]: 11.50 mL
- Liquid volume at drain time 4.0 min [1]: 13.25 mL
- 1 h separation, amount [2, 6]: 2.8 mL
- 1 h separation, appearance [2, 6]: C
- 24 h separation, amount [2, 6]: 4.6 mL
- 24 h separation, appearance [2, 6]: C
- Spon. (spontaneity) [2, 6]: G
- 1 h separation, amount [2, 7]: 3.9 mL
- 1 h separation, appearance [2, 7]: CO
- 24 h separation, amount [2, 7]: 1 O, 4 CO
- Spon. (spontaneity) [2, 7]: F
- 1 h separation, amount [2, 8]: 3 mL
- 1 h separation, appearance [2, 8]: C
- 24 h separation, amount [2, 8]: 5.8 mL
- 24 h separation, appearance [2, 8]: C
- Spon. (spontaneity) [2, 8]: F
- 1 h separation, amount [2, 9]: NS
- 24 h separation, amount [2, 9]: 2.6 mL
- 24 h separation, appearance [2, 9]: O
- Spon. (spontaneity) [2, 9]: G
- 1 h separation, amount [2, 10]: 1.5 CO, 0.5 C
- 24 h separation, amount [2, 10]: 2.8 mL
- 24 h separation, appearance [2, 10]: CO
- Spon. (spontaneity) [2, 10]: P
- 1 h separation, amount [2, 11]: 2.1 mL
- 1 h separation, appearance [2, 11]: CO
- 24 h separation, amount [2, 11]: 3.5 mL
- 24 h separation, appearance [2, 11]: CO
- Spon. (spontaneity) [2, 11]: P
- Isotropic Clear phase region [3]: 0-100 % Actives Level
- 24 h separation, amount [4, 12]: NS
- 1 h separation, amount [5, 13]: 4.5 mL
- 1 h separation, appearance [5, 13]: C
- 24 h separation, amount [5, 13]: 8.2 mL
- 24 h separation, appearance [5, 13]: C
- Spon. (spontaneity) [5, 13]: P
- 1 h separation, amount [5, 14]: 5 mL
- 1 h separation, appearance [5, 14]: C
- 24 h separation, amount [5, 14]: 7.8 mL
- 24 h separation, appearance [5, 14]: C
- Spon. (spontaneity) [5, 14]: F
- 1 h separation, amount [5, 12]: NS
- Spon. (spontaneity) [5, 12]: G
- 1 h separation, amount [5, 15]: 6.4 mL
- 1 h separation, appearance [5, 15]: CO
- 24 h separation, amount [5, 15]: 6 mL
- 24 h separation, appearance [5, 15]: O
- Spon. (spontaneity) [5, 15]: F
- 1 h separation, amount [5, 16]: 2.1 mL
- 1 h separation, appearance [5, 16]: C
- 24 h separation, amount [5, 16]: 4.9 mL
- 24 h separation, appearance [5, 16]: C
- Spon. (spontaneity) [5, 16]: F
- 1 h separation, amount [5, 17]: 3 mL
- 1 h separation, appearance [5, 17]: C
- 24 h separation, amount [5, 17]: 5.5 mL
- 24 h separation, appearance [5, 17]: C
- Spon. (spontaneity) [5, 17]: F

Structure (SMILES): C=CCCCCCCCCOCCOCCOCCOCCOCCOCCOCCOCCOCCOCCOCCOCCOCCOCCOCCO [A10-16]
- 1 h separation, amount [2, 6]: 2.6 mL
- 1 h separation, appearance [2, 6]: C
- 24 h separation, amount [2, 6]: 5 mL
- 24 h separation, appearance [2, 6]: C
- Spon. (spontaneity) [2, 6]: P
- 1 h separation, amount [2, 7]: 2.8 mL
- 1 h separation, appearance [2, 7]: C
- 24 h separation, amount [2, 7]: 3.9 mL
- 24 h separation, appearance [2, 7]: C
- Spon. (spontaneity) [2, 7]: P
- 1 h separation, amount [2, 8]: 7 mL
- 1 h separation, appearance [2, 8]: C
- 24 h separation, amount [2, 8]: 7 mL
- 24 h separation, appearance [2, 8]: C
- Spon. (spontaneity) [2, 8]: P
- 1 h separation, amount [2, 9]: 6 mL
- 1 h separation, appearance [2, 9]: C
- 24 h separation, amount [2, 9]: 4.8 mL
- 24 h separation, appearance [2, 9]: CO
- Spon. (spontaneity) [2, 9]: P
- 1 h separation, amount [2, 10]: 1 mL
- 1 h separation, appearance [2, 10]: C
- 24 h separation, amount [2, 10]: 3.5 mL
- 24 h separation, appearance [2, 10]: CO
- Spon. (spontaneity) [2, 10]: P
- 1 h separation, amount [2, 11]: 1.2 mL
- 1 h separation, appearance [2, 11]: C
- 24 h separation, amount [2, 11]: 2 mL
- 24 h separation, appearance [2, 11]: CO
- Spon. (spontaneity) [2, 11]: P
- Paste phase region [3]: 93-100 % Actives Level
- 24 h separation, amount [4, 12]: NS
- 24 h separation, amount [4, 16]: NS
- 1 h separation, amount [5, 13]: 4.4 mL
- 1 h separation, appearance [5, 13]: C
- 24 h separation, amount [5, 13]: 8.5 mL
- 24 h separation, appearance [5, 13]: C
- Spon. (spontaneity) [5, 13]: P
- 1 h separation, amount [5, 14]: 4.8 mL
- 1 h separation, appearance [5, 14]: C
- 24 h separation, amount [5, 14]: 7.6 mL
- 24 h separation, appearance [5, 14]: C
- Spon. (spontaneity) [5, 14]: P
- 1 h separation, amount [5, 12]: NS
- Spon. (spontaneity) [5, 12]: G
- 1 h separation, amount [5, 15]: 5.5 mL
- 1 h separation, appearance [5, 15]: CO
- 24 h separation, amount [5, 15]: 5.4 mL
- 24 h separation, appearance [5, 15]: O
- Spon. (spontaneity) [5, 15]: F
- 1 h separation, amount [5, 16]: 1 mL
- 1 h separation, appearance [5, 16]: C
- Spon. (spontaneity) [5, 16]: F
- 1 h separation, amount [5, 17]: 2 mL
- 1 h separation, appearance [5, 17]: C
- 24 h separation, amount [5, 17]: 4.7 mL
- 24 h separation, appearance [5, 17]: C
- Spon. (spontaneity) [5, 17]: F
